{"source": "paper PMC10313921", "about": "“A living ex vivo platform for functional, personalized brain cancer diagnosis” (Cell Reports Medicine, 2023)", "format_in_all_cases": "cell-based, human", "key": {"[1]": {"system": "LN229 (established GBM line)", "assay": "Drug screening of LN229 tumor foci on OBSCs", "protocol": "(§1) Tumor cells (0.17 μL, 25,000 cells) were seeded onto OBSCs 2h after slicing, with one tumor seeded in the center of each hemisphere for a total of two tumor foci per OBSC. BSM was changed 24h after slicing. Fluorescence images were taken 0 h, 24 h, and 96 h post-seeding for normalization of tumor size. Bioluminescence readouts were also taken at 0 h, 24 h, and 96 h post seeding for assessment of cell viability. Luciferin was added underneath the culture insert and allowed to incubate for 10 min before bioluminescence measurement on an AMI optical imaging system.\n(§2) Tumor cells were seeded onto OBSCs 2h after slicing as described above. One day after tumor seeding, six concentrations of each drug were diluted in the media underneath each culture insert, or XRad was applied using an X-Rad 320 Precision X-ray machine (n = 4 tumor foci per concentration; n ≥ 24 tumor foci per drug per cell line). Three days after treatment, the bioluminescence of live tumor cells was measured using an AMI optical imager (Spectral Instruments) and dose-response curves were generated. Tumor survival was normalized to day one tumor fluorescence and compared to an untreated control group.\n(§3) Several weighted parameters were factored into an overall drug sensitivity score.\n(§4) For DSS parameters 1–6, therapeutic windows were calculated by comparing OBSC toxicity and tumor response at the doses where tumor kill passed through the DSS parameter (Table S1 and S3). For DSS parameter 7, the therapeutic window was calculated by comparing the slopes through the tumor EC50 and the OBSC tox EC50. For DSS parameter 8, the therapeutic window was calculated by comparing the areas under tumor kill and OBSC tox curves. Normalized therapeutic window ratios for DSS parameters 1–8 within each drug-tumor-OBSC interaction were calculated in the following manner: within each window, values ranged from +1 to −1, where values approaching +1 signify increasing tumor kill relative to normal tissue toxicity, and values approaching −1 indicate agents where tumors remained highly viable while toxicity to the normal OBSC tissue was elevated. DSS parameters 9–11 were determined based on the behavior of the tumor in response to the drug, as defined above.\n(§5) All individually weighed parameters were added together to generate the DSS. Overall DSS from 0 to 100 signify increasing efficacy in tumor kill relative to OBSC toxicity, while scores from 0 to −100 describe scenarios in which tumors thrive more effectively than OBSCs for a given treatment. Dose-response values were calculated via linear interpolation of raw data, not from best-fit curve equations."}, "[2]": {"system": "U373KO (RAD18 knockout of U373WT via CRISPR)", "assay": "Drug screening of U373KO tumor foci on OBSCs", "conditions": "U373 KO on OBSCs", "protocol": "as §1, §2, §3, §4, §5"}, "[3]": {"system": "GBM8 (high-passage patient-derived GBM line)", "assay": "Drug screening of GBM8 tumor foci on OBSCs", "protocol": "as §1, §2, §3, §4, §5"}, "[4]": {"system": "PGBM patient tumor tissue (pediatric GBM)", "assay": "Drug screening of uncultured patient tumor tissue PGBM on OBSCs", "conditions": "Homo sapiens, PGBM on OBSCs", "protocol": "as §2\n(§6) To engraft onto OBSCs, the cryopreserved/thawed or fresh brain tumor tissue was filtered through a 100 μm cell strainer. Each 50 mg of tissue was transfected with 1mL mcherry-FLuc Lentivirus at 1.5e7 vg/ml with 1μL polybrene for 4h at 37°C. After incubation, the brain tumor tissue was washed with PBS three times to remove the residual virus and reconstituted in PBS with a final volume of 150 μL. Then the tissue solution was engrafted atop OBSCs at ∼0.5 mg tissue in 3 μL of PBS on each hemisphere of the slice. The OBSC engrafted with patient tumor tissue was incubated at 37°C with 5% CO2 and 95% humidity. The BSM was changed after 24h and subsequently every 3 days. Tumor treatment studies were executed as described above for tumor lines. The viability of the patient tissue was measured by an AMI optical imaging system with the addition of 1.5 mg/mL luciferin underneath the culture insert.\nas §3, §4, §5"}, "[5]": {"system": "MS21 (low-passage patient-derived GBM line)", "assay": "Drug screening of MS21 tumor foci on OBSCs", "protocol": "as §1, §2, §3, §4, §5"}, "[6]": {"system": "PDIPG (low-passage pediatric patient-derived line)", "assay": "Drug screening of PDIPG tumor foci on OBSCs", "protocol": "as §1, §2, §3, §4, §5"}, "[7]": {"system": "U373WT (wild-type established GBM line)", "assay": "Drug screening of U373WT tumor foci on OBSCs", "conditions": "U373 WT on OBSCs", "protocol": "as §1, §2, §3, §4, §5"}, "[8]": {"system": "PGBM-R patient tumor tissue (recurrent tumor from same patient as PGBM)", "assay": "Drug screening of uncultured patient tumor tissue PGBM-R on OBSCs", "conditions": "PGBM-R relative to PGBM", "protocol": "as §2, §6, §3, §4, §5"}, "[9]": {"system": "MB231Br (breast cancer metastasis to brain)", "assay": "Drug screening of MB231Br tumor foci on OBSCs"}, "[10]": {"system": "PIS patient tumor tissue (intracranial sarcoma)", "assay": "Drug screening of uncultured patient tumor tissue PIS on OBSCs", "conditions": "Homo sapiens; PIS on OBSCs; dose required to kill 90% of the tumor", "protocol": "as §2, §6, §3, §4, §5"}, "[11]": {"conditions": "area under the dose-response curve, trapezoidal rule"}, "[12]": {"conditions": "dose required to kill 10% of the tumor"}, "[13]": {"conditions": "dose required to kill 25% of the tumor"}, "[14]": {"conditions": "dose required to kill 75% of the tumor"}, "[15]": {"conditions": "Homo sapiens, U373 MG, dose required to kill 50% of the tumor"}, "[16]": {"conditions": "Homo sapiens, U373 MG, dose required to kill 90% of the tumor"}, "[17]": {"conditions": "Homo sapiens, U373 MG, dosed day 1, survival via bioluminescence day 4, linear interpolation"}}}
{"smiles": "Nc1ncn([C@@H]2O[C@H](CO)[C@@H](O)[C@H]2O)c(=O)n1", "note": "[Azacitidine]", "values": [{"measurement": "Killing at highest dose", "setting": "[1]", "result": "8.60E-01 fraction of tumor population killed"}, {"measurement": "EC50", "setting": "[1]; Homo sapiens, LN-229, dose required to kill 50% of the tumor", "result": 400, "unit": "µM"}, {"measurement": "EC90", "setting": "[1]; Homo sapiens, LN-229, dose required to kill 90% of the tumor", "result": "> 10", "unit": "µM"}, {"measurement": "IC50", "setting": "[1]; Homo sapiens, LN-229, dosed day 1, survival via bioluminescence day 4, linear interpolation", "result": 400, "unit": "µM"}, {"measurement": "AUC", "setting": "[1]; [11]", "result": "4.51E+02"}, {"measurement": "EC10", "setting": "[1]; [12]", "result": 28.9, "unit": "µM"}, {"measurement": "EC25", "setting": "[1]; [13]", "result": 45.6, "unit": "µM"}, {"measurement": "EC75", "setting": "[1]; [14]", "result": 817, "unit": "µM"}, {"measurement": "Slope", "setting": "[1]; slope through the EC50", "result": "-6.00E-04"}, {"measurement": "EC50", "setting": "[2]; [15]", "result": 158, "unit": "µM"}, {"measurement": "EC90", "setting": "[2]; [16]", "result": "> 10", "unit": "µM"}, {"measurement": "IC50", "setting": "[2]; [17]", "result": 158, "unit": "µM"}, {"measurement": "Killing at highest dose", "setting": "[2]", "result": "8.30E-01 fraction of tumor population killed"}, {"measurement": "AUC", "setting": "[2]; [11]", "result": "3.39E+02"}, {"measurement": "EC10", "setting": "[2]; [12]", "result": 23.8, "unit": "µM"}, {"measurement": "EC25", "setting": "[2]; [13]", "result": 44.5, "unit": "µM"}, {"measurement": "EC75", "setting": "[2]; [14]", "result": 647, "unit": "µM"}, {"measurement": "Slope", "setting": "[2]; slope through the EC50", "result": "-1.73E-03"}, {"measurement": "Killing at highest dose", "setting": "[3]; GBM8 on OBSCs", "result": "1.00E+00 fraction of tumor population killed"}, {"measurement": "AUC", "setting": "[3]; GBM8 on OBSCs, area under the dose-response curve, trapezoidal rule", "result": "4.08E+01"}, {"measurement": "EC10", "setting": "[3]; GBM8 on OBSCs, dose required to kill 10% of the tumor", "result": 8.33, "unit": "µM"}, {"measurement": "EC25", "setting": "[3]; GBM8 on OBSCs, dose required to kill 25% of the tumor", "result": 18.1, "unit": "µM"}, {"measurement": "EC75", "setting": "[3]; GBM8 on OBSCs, dose required to kill 75% of the tumor", "result": 49.4, "unit": "µM"}, {"measurement": "Slope", "setting": "[3]; GBM8 on OBSCs, slope through the EC50", "result": "-1.60E-02"}, {"measurement": "EC50", "setting": "[3]; Homo sapiens", "result": 33.8, "unit": "µM"}, {"measurement": "EC90", "setting": "[3]; Homo sapiens", "result": 83.3, "unit": "µM"}, {"measurement": "IC50", "setting": "[3]; Homo sapiens", "result": 34, "unit": "µM"}, {"measurement": "EC50", "setting": "[4]; dose required to kill 50% of the tumor", "result": "> 100", "unit": "µM"}, {"measurement": "EC90", "setting": "[4]; dose required to kill 90% of the tumor", "result": "> 10", "unit": "µM"}, {"measurement": "EC50", "setting": "[5]; Homo sapiens", "result": 821, "unit": "µM"}, {"measurement": "EC90", "setting": "[5]; Homo sapiens", "result": "> 10", "unit": "µM"}, {"measurement": "IC50", "setting": "[5]; Homo sapiens", "result": 821, "unit": "µM"}, {"measurement": "Killing at highest dose", "setting": "[5]; MS21 on OBSCs", "result": "5.50E-01 fraction of tumor population killed"}, {"measurement": "AUC", "setting": "[5]; MS21 on OBSCs, area under the dose-response curve, trapezoidal rule", "result": "6.06E+02"}, {"measurement": "EC10", "setting": "[5]; MS21 on OBSCs, dose required to kill 10% of the tumor", "result": 31.5, "unit": "µM"}, {"measurement": "EC25", "setting": "[5]; MS21 on OBSCs, dose required to kill 25% of the tumor", "result": 90.9, "unit": "µM"}, {"measurement": "Slope", "setting": "[5]; MS21 on OBSCs, slope through the EC50", "result": "-2.80E-04"}, {"measurement": "EC50", "setting": "[6]; Homo sapiens", "result": 447, "unit": "µM"}, {"measurement": "EC90", "setting": "[6]; Homo sapiens", "result": "> 10", "unit": "µM"}, {"measurement": "IC50", "setting": "[6]; Homo sapiens", "result": 447, "unit": "µM"}, {"measurement": "Killing at highest dose", "setting": "[6]; PDIPG on OBSCs", "result": "6.40E-01 fraction of tumor population killed"}, {"measurement": "AUC", "setting": "[6]; PDIPG on OBSCs, area under the dose-response curve, trapezoidal rule", "result": "5.03E+02"}, {"measurement": "EC10", "setting": "[6]; PDIPG on OBSCs, dose required to kill 10% of the tumor", "result": 3.7, "unit": "µM"}, {"measurement": "EC25", "setting": "[6]; PDIPG on OBSCs, dose required to kill 25% of the tumor", "result": 9.26, "unit": "µM"}, {"measurement": "Slope", "setting": "[6]; PDIPG on OBSCs, slope through the EC50", "result": "-2.53E-04"}, {"measurement": "EC50", "setting": "[7]; [15]", "result": 800, "unit": "µM"}, {"measurement": "EC90", "setting": "[7]; [16]", "result": "> 10", "unit": "µM"}, {"measurement": "IC50", "setting": "[7]; [17]", "result": 800, "unit": "µM"}, {"measurement": "Killing at highest dose", "setting": "[7]", "result": "5.40E-01 fraction of tumor population killed"}, {"measurement": "AUC", "setting": "[7]; [11]", "result": "5.88E+02"}, {"measurement": "EC10", "setting": "[7]; [12]", "result": 61.1, "unit": "µM"}, {"measurement": "EC25", "setting": "[7]; [13]", "result": 81.9, "unit": "µM"}, {"measurement": "Slope", "setting": "[7]; slope through the EC50", "result": "-2.00E-04"}, {"measurement": "increase of DSS in the recurrent tumor", "setting": "[8]", "result": 96, "unit": "points"}, {"measurement": "EC50", "setting": "[9]; Homo sapiens, MB231BR on OBSCs, dose required to kill 50% of the tumor", "result": 208, "unit": "µM"}, {"measurement": "EC90", "setting": "[9]; Homo sapiens, MB231BR on OBSCs, dose required to kill 90% of the tumor", "result": 906, "unit": "µM"}, {"measurement": "IC50", "setting": "[9]; Homo sapiens, MB231Br on OBSCs, dosed day 1, survival via bioluminescence day 4, linear interpolation", "result": 208, "unit": "µM"}, {"measurement": "Killing at highest dose", "setting": "[9]; MB231BR on OBSCs", "result": "9.50E-01 fraction of tumor population killed"}, {"measurement": "AUC", "setting": "[9]; MB231BR on OBSCs, area under the dose-response curve, trapezoidal rule", "result": "3.36E+02"}, {"measurement": "EC10", "setting": "[9]; MB231BR on OBSCs, dose required to kill 10% of the tumor", "result": 4.76, "unit": "µM"}, {"measurement": "EC25", "setting": "[9]; MB231BR on OBSCs, dose required to kill 25% of the tumor", "result": 18.9, "unit": "µM"}, {"measurement": "EC75", "setting": "[9]; MB231BR on OBSCs, dose required to kill 75% of the tumor", "result": 625, "unit": "µM"}, {"measurement": "Slope", "setting": "[9]; MB231BR on OBSCs, slope through the EC50", "result": "-1.20E-03"}, {"measurement": "EC90", "setting": "[10]", "result": "> 10", "unit": "µM"}]}
